ChEMBL document CHEMBL3853262 (Medchemcomm, 2016)
Activity calls are given as the source filed them. The calls are words filed in the database; no cut-off is given here.

Assays:
THP-1 [1] = experiment: Proapoptotic activity in human THP1 cells assessed as early apoptotic cells at 25 uM after 5 hrs by annexin V/propidium iodide staining-based capillary cytometric method relative to control; format: functional
THP-1 [2] = experiment: Proapoptotic activity in human THP1 cells assessed as necrotic cells at 25 uM after 5 hrs by annexin V/propidium iodide staining-based capillary cytometric method relative to control; format: functional
THP-1 [3] = experiment: Proapoptotic activity in human THP1 cells assessed as necrotic cells at 25 uM after 7 hrs by annexin V/propidium iodide staining-based capillary cytometric method relative to control; format: functional
NTERA-2-cl-D1 [4] = experiment: Induction of apoptosis in human NT2/D1 cells assessed as late apoptotic cells at 25 uM after 4 hrs in presence of pan caspase inhibitor Z-VAD-fmk by annexin V/propidium iodide staining-based capillary cytometric method (reference value: 0.70%); format: functional
THP-1 [5] = experiment: Proapoptotic activity in human THP1 cells assessed as viable cells at 25 uM after 3 hrs by annexin V/propidium iodide staining-based capillary cytometric method relative to control; format: functional; settings: THP-1, 3 h, read-out: Activity
THP-1 [6] = experiment: Proapoptotic activity in human THP1 cells assessed as necrotic cells at 25 uM after 1 hr by annexin V/propidium iodide staining-based capillary cytometric method relative to control; format: functional
NTERA-2-cl-D1 [7] = experiment: Proapoptotic activity in human NT2/D1 cells assessed as necrotic cells at 25 uM after 7 hrs by annexin V/propidium iodide staining-based capillary cytometric method relative to control; format: functional
THP-1 [8] = experiment: Proapoptotic activity in human THP1 cells assessed as viable cells at 25 uM after 5 hrs by annexin V/propidium iodide staining-based capillary cytometric method relative to control; format: functional; settings: THP-1, 5 h, read-out: Activity
THP-1 [9] = experiment: Proapoptotic activity in human THP1 cells assessed as viable cells at 25 uM after 1 hr by annexin V/propidium iodide staining-based capillary cytometric method relative to control; format: functional; settings: THP-1, 1 h, read-out: Activity
NTERA-2-cl-D1 [10] = experiment: Proapoptotic activity in human NT2/D1 cells assessed as early apoptotic cells at 25 uM after 7 hrs by annexin V/propidium iodide staining-based capillary cytometric method relative to control; format: functional
NTERA-2-cl-D1 [11] = experiment: Induction of apoptosis in human NT2/D1 cells assessed as necrotic cells at 25 uM after 4 hrs in presence of pan caspase inhibitor Z-VAD-fmk by annexin V/propidium iodide staining-based capillary cytometric method (reference value: 0.10%); format: functional
NTERA-2-cl-D1 [12] = experiment: Proapoptotic activity in human NT2/D1 cells assessed as late apoptotic cells at 25 uM after 1 hr by annexin V/propidium iodide staining-based capillary cytometric method relative to control; format: functional
NTERA-2-cl-D1 [13] = experiment: Proapoptotic activity in human NT2/D1 cells assessed as viable cells at 25 uM after 7 hrs by annexin V/propidium iodide staining-based capillary cytometric method relative to control; format: functional; settings: NTERA-2-cl-D1, 7 h, read-out: Activity
BJ = experiment: Proapoptotic activity in human BJ cells by annexin V-FITC/propidium iodide staining-based capillary cytometric method; format: functional, cell-based
NTERA-2-cl-D1 [14] = experiment: Induction of apoptosis in human NT2/D1 cells assessed as early apoptotic cells at 25 uM after 4 hrs by annexin V/propidium iodide staining-based capillary cytometric method (reference value: 3.40%); format: functional
NTERA-2-cl-D1 [15] = experiment: Proapoptotic activity in human NT2/D1 cells assessed as necrotic cells at 25 uM after 3 hrs by annexin V/propidium iodide staining-based capillary cytometric method relative to control; format: functional
THP-1 [16] = experiment: Induction of DNA fragmentation in human THP1 cells at 25 uM after 6 to 24 hrs by propidium iodide/RNase staining-based capillary cytometric method; format: functional, cell-based
NTERA-2-cl-D1 [17] = experiment: Induction of apoptosis in human NT2/D1 cells assessed as viable cells at 25 uM after 4 hrs by annexin V/propidium iodide staining-based capillary cytometric method (reference value: 95.80%); format: functional; settings: NTERA-2-cl-D1, 4 h, read-out: Activity
NTERA-2-cl-D1 [18] = experiment: Proapoptotic activity in human NT2/D1 cells assessed as late apoptotic cells at 25 uM after 5 hrs by annexin V/propidium iodide staining-based capillary cytometric method relative to control; format: functional
THP-1 [19] = experiment: Induction of apoptosis in human THP1 cells assessed as […] cells at 25 uM after 4 hrs by annexin V/propidium iodide staining-based capillary cytometric method (reference value: 96.40%); format: functional
NTERA-2-cl-D1 [20] = experiment: Induction of apoptosis in human NT2/D1 cells assessed as viable cells at 25 uM after 4 hrs in presence of pan caspase inhibitor Z-VAD-fmk by annexin V/propidium iodide staining-based capillary cytometric method (reference value: 95.80%); format: functional; settings: NTERA-2-cl-D1, 4 h, read-out: Activity
BXPC-3 = experiment: Proapoptotic activity in human BxPC3 cells by annexin V-FITC/propidium iodide staining-based capillary cytometric method; format: functional, cell-based
THP-1 [21] = experiment: Induction of apoptosis in human THP1 cells assessed as late apoptotic cells at 25 uM after 4 hrs in presence of pan caspase inhibitor Z-VAD-fmk by annexin V/propidium iodide staining-based capillary cytometric method (reference value: 0.34%); format: functional
NTERA-2-cl-D1 [22] = experiment: Proapoptotic activity in human NT2/D1 cells by annexin V-FITC/propidium iodide staining-based capillary cytometric method; format: functional, cell-based
NTERA-2-cl-D1 [23] = experiment: Proapoptotic activity in human NT2/D1 cells assessed as late apoptotic cells at 25 uM after 3 hrs by annexin V/propidium iodide staining-based capillary cytometric method relative to control; format: functional
THP-1 [24] = experiment: Induction of apoptosis in human THP1 cells assessed as late necrotic cells at 25 uM after 4 hrs in presence of pan caspase inhibitor Z-VAD-fmk by annexin V/propidium iodide staining-based capillary cytometric method (reference value: 0.04%); format: functional
NTERA-2-cl-D1 [25] = experiment: Proapoptotic activity in human NT2/D1 cells assessed as necrotic cells at 25 uM after 1 hr by annexin V/propidium iodide staining-based capillary cytometric method relative to control; format: functional
NTERA-2-cl-D1 [26] = experiment: Induction of DNA fragmentation in human NT2/D1 cells at 25 uM after 6 to 24 hrs by propidium iodide/RNase staining-based capillary cytometric method; format: functional, cell-based
NTERA-2-cl-D1 [27] = experiment: Proapoptotic activity in human NT2/D1 cells assessed as late apoptotic cells at 25 uM after 7 hrs by annexin V/propidium iodide staining-based capillary cytometric method relative to control; format: functional

**Q.** How did the Activity (THP-1 [1]) turn out when CNc1nc(-c2cccc(NC(=O)c3cc4ccccc4[nH]3)c2)c[nH]1.Cl was run?
**A.** Its Activity is 33.25%.

**Q.** And the Activity (THP-1 [2])?
**A.** Its Activity is 0.1%.

**Q.** And the Activity (THP-1 [3])?
**A.** The Activity was 0.2%.

**Q.** What about the Activity (NTERA-2-cl-D1 [4]) of the same compound?
**A.** The Activity was 2.87%.

**Q.** What about the viability at 25 µM (THP-1 [5]) of the same compound?
**A.** Its viability at 25 µM is 77.3%.

**Q.** And the Activity (THP-1 [6])?
**A.** The Activity was 0.2%.

**Q.** What about the Activity (NTERA-2-cl-D1 [7]) of the same compound?
**A.** The Activity was 0%.

**Q.** And the viability at 25 µM (THP-1 [8])?
**A.** The viability at 25 µM was 28.6%.

**Q.** And the viability at 25 µM (THP-1 [9])?
**A.** Its viability at 25 µM is 95.7%.

**Q.** And the Activity (NTERA-2-cl-D1 [10])?
**A.** Its Activity is 55.66%.

**Q.** What about the Activity (NTERA-2-cl-D1 [11]) of the same compound?
**A.** The Activity was 0.17%.

**Q.** What about the Activity (NTERA-2-cl-D1 [12]) of the same compound?
**A.** The Activity was 3.59%.

**Q.** What about the viability at 25 µM (NTERA-2-cl-D1 [13]) of the same compound?
**A.** The viability at 25 µM was 31.2%.

**Q.** What about the EC50 (BJ) of the same compound?
**A.** Its EC50 is 21 µM.

**Q.** What about the Activity (NTERA-2-cl-D1 [14]) of the same compound?
**A.** The Activity was 23.88%.

**Q.** What about the Activity (NTERA-2-cl-D1 [15]) of the same compound?
**A.** Its Activity is 0.11%.

**Q.** And the Activity (THP-1 [16])?
**A.** The Activity was “Active”.

**Q.** What about the viability at 25 µM (NTERA-2-cl-D1 [17]) of the same compound?
**A.** The viability at 25 µM was 70.7%.

**Q.** And the Activity (NTERA-2-cl-D1 [18])?
**A.** The Activity was 6.08%.

**Q.** What about the Activity (THP-1 [19]) of the same compound?
**A.** The Activity was 5.34%.

**Q.** What about the viability at 25 µM (NTERA-2-cl-D1 [20]) of the same compound?
**A.** Its viability at 25 µM is 88.8%.

**Q.** And the EC50 (BXPC-3)?
**A.** The EC50 was 58 µM.

**Q.** What about the Activity (THP-1 [21]) of the same compound?
**A.** The Activity was 17.2%.

**Q.** What about the EC50 (NTERA-2-cl-D1 [22]) of the same compound?
**A.** Its EC50 is 11 µM.

**Q.** And the Activity (NTERA-2-cl-D1 [23])?
**A.** Its Activity is 3.24%.

**Q.** What about the Activity (THP-1 [24]) of the same compound?
**A.** The Activity was 0.1%.

**Q.** What about the Activity (NTERA-2-cl-D1 [25]) of the same compound?
**A.** The Activity was 0.11%.

**Q.** And the Activity (NTERA-2-cl-D1 [26])?
**A.** The Activity was “Active”.

**Q.** And the Activity (NTERA-2-cl-D1 [27])?
**A.** Its Activity is 13.18%.
